Assays:
CD19+ B cells = experiment: Human B cell proliferation assay (3H-thymidine incorporation); settings: for B cell proliferation (FIG. 11), in words: purified human B cells, 5 μg/ml, 96 h
PBMCs = experiment: Human PBMC proliferation assay (3H-thymidine incorporation); assay type: cell-based; settings: Experiment A; for mean cpm: 2 μg/ml
human PBMCs = experiment: Human PBMC cytokine response assay (IFN-γ and IFN-α in cell-free medium by ELISA), with or without cPLGA;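 on IFN-α (pg/ml) mean: 20 µg/mL compound for 24 hours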;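 on IFN-γ (pg/ml) mean: 20 µg/mL compound for 24 hours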; assay type: cell-based; settings: for IFN-α induction (FIG. 10), in words: PBMCs from 8 donors, 20 μg/ml
[1] = B cells, Donor 146, 2 μg/ml, Experiment A
[2] = B cells, Donor 147, 2 μg/ml, Experiment A
[3] = donor 28066, 20 ug/ml, 24 h, + PLGA = premixed with 100 μg/ml cPLGA
[4] = donor 28067, 20 ug/ml, 24 h, + PLGA = premixed with 100 μg/ml cPLGA
[5] = donor 28068, 20 ug/ml, 24 h, + PLGA = premixed with 100 μg/ml cPLGA
[6] = mean of donors 28065-28068, 20 ug/ml, 24 h, + PLGA = premixed with 100 μg/ml cPLGA
[7] = Table 24, mean of donors 28234-28237
[8] = Table 25, mean of donors 28250-28253

In the case of “5′-TGCTGC-3′-HEG-5′-AGCTTGC-3′-HEG-5′-AGATGAT-3′ [Compound M-1, reference compound]”, the “B cell proliferation, in words” value (CD19+ B cells; 2 μg/ml, 48 h plus 8 h 3H-thymidine pulse) was “little to no B cell proliferation”, the cpm1 (CD19+ B cells; [1]) was 1514 cpm and the cpm2 (CD19+ B cells; [1]) was 2815 cpm. It also gave a cpm3 (CD19+ B cells; [1]) of 1173 cpm, a mean cpm (CD19+ B cells; B cells, Donor 146 mean, 2 μg/ml, Experiment A) of 1834 cpm and a cpm1 (CD19+ B cells; [2]) of 1679 cpm. It also gave a cpm2 (CD19+ B cells; [2]) of 1667 cpm, a cpm3 (CD19+ B cells; [2]) of 1436 cpm and a mean cpm (CD19+ B cells; B cells, Donor 147 mean, 2 μg/ml, Experiment A) of 1594 cpm. The mean of both (CD19+ B cells; B cells, mean of Donors 146 and 147, 2 μg/ml, Experiment A) was 1714 cpm, the cpm1 (PBMCs; Donor 146, 2 μg/ml) was 8753 cpm and the cpm2 (PBMCs; Donor 146, 2 μg/ml) was 5203 cpm. It also gave a cpm3 (PBMCs; Donor 146, 2 μg/ml) of 4496 cpm, a mean cpm (PBMCs; Donor 146 mean) of 6151 cpm and a cpm1 (PBMCs; Donor 147, 2 μg/ml) of 1034 cpm. The cpm2 (PBMCs; Donor 147, 2 μg/ml) was 3298 cpm, the cpm3 (PBMCs; Donor 147, 2 μg/ml) was 1674 cpm and the mean cpm (PBMCs; Donor 147 mean) was 2002 cpm. For the same substance, the mean of both (PBMCs; mean of Donors 146 and 147, 2 μg/ml) was 4076 cpm, the IFN-α (human PBMCs; Table 10, donor 28042) was 0 pg/mL and the IFN-γ (human PBMCs; Table 10, donor 28042) was 45 pg/mL. It also gave an IFN-α (human PBMCs; Table 10, donor 28043) of 0 pg/mL, an IFN-γ (human PBMCs; Table 10, donor 28043) of 29 pg/mL and an IFN-α (human PBMCs; Table 10, donor 28044) of 13 pg/mL. The IFN-γ (human PBMCs; Table 10, donor 28044) was 7 pg/mL, the IFN-α (human PBMCs; Table 10, donor 28045) was 2 pg/mL and the IFN-γ (human PBMCs; Table 10, donor 28045) was 3 pg/mL. The IFN-α mean (human PBMCs; Table 10, mean of donors) was 4 pg/mL, the IFN-γ mean (human PBMCs; Table 10, mean of donors) was 21 pg/mL and the “IFN-γ (pg/ml) 28065” value (human PBMCs; donor 28065 (high background), 20 ug/ml, 24 h, + PLGA = premixed with 100 μg/ml cPLGA, 1000 = outside assay limits) was 157 pg/mL. For the same substance, the “IFN-α (pg/ml) 28065” value (human PBMCs; donor 28065, 20 ug/ml, 24 h, + PLGA = premixed with 100 μg/ml cPLGA) was 0 pg/mL, the “IFN-α (pg/ml) 28066” value (human PBMCs; [3]) was 0 pg/mL and the “IFN-γ (pg/ml) 28066” value (human PBMCs; [3]) was 1 pg/mL. For the same substance, the “IFN-α (pg/ml) 28067” value (human PBMCs; [4]) was 3 pg/mL, the “IFN-γ (pg/ml) 28067” value (human PBMCs; [4]) was 40 pg/mL and the “IFN-α (pg/ml) 28068” value (human PBMCs; [5]) was 0 pg/mL. For the same substance, the “IFN-γ (pg/ml) 28068” value (human PBMCs; [5]) was 2 pg/mL, the “IFN-α (pg/ml) mean” value (human PBMCs; [6]) was 1 pg/mL and the “IFN-γ (pg/ml) mean” value (human PBMCs; [6]) was 50 pg/mL. For the same substance, the “immunomodulatory activity (IFN-γ / IFN-α secretion), in words” value (human PBMCs; used alone (no cPLGA)) was “did not show activity”.

For “(5′-TCGACGT-3′-HEG)2-glycerol-HEG-5′-TCGACGT-3′ [Compound C-101]”, the “B cell proliferation (FIG. 11), in words” value (CD19+ B cells) was “induce very little B cell proliferation”, the IFN-α (human PBMCs; Example 58, 0.8 ug/ml, donor 1) was 52 pg/mL and the IFN-α (human PBMCs; Example 58, 0.8 ug/ml, donor 2) was 52 pg/mL. For the same substance, the IFN-α (human PBMCs; Example 58, 0.8 ug/ml, donor 3) was 52 pg/mL, the IFN-α (human PBMCs; Example 58, 0.8 ug/ml, donor 4) was 52 pg/mL and the IFN-α mean (human PBMCs; Example 58, 0.8 ug/ml, mean of four individuals) was 52 pg/mL. It also gave an IFN-α (human PBMCs; Example 58, 4 ug/ml, donor 1) of 52 pg/mL, an IFN-α (human PBMCs; Example 58, 4 ug/ml, donor 2) of 52 pg/mL and an IFN-α (human PBMCs; Example 58, 4 ug/ml, donor 3) of 59 pg/mL. It also gave an IFN-α (human PBMCs; Example 58, 4 ug/ml, donor 4) of 204 pg/mL, an IFN-α mean (human PBMCs; Example 58, 4 ug/ml, mean of four individuals) of 92 pg/mL and an IFN-α (human PBMCs; Example 58, 20 ug/ml, donor 1) of 2330 pg/mL. For the same substance, the IFN-α (human PBMCs; Example 58, 20 ug/ml, donor 2) was 109 pg/mL, the IFN-α (human PBMCs; Example 58, 20 ug/ml, donor 3) was 215 pg/mL and the IFN-α (human PBMCs; Example 58, 20 ug/ml, donor 4) was 157 pg/mL. The IFN-α mean (human PBMCs; Example 58, 20 ug/ml, mean of four individuals) was 703 pg/mL, the IFN-α (human PBMCs; Example 59, 0.8 ug/ml, donor 48) was 102 pg/mL and the IFN-α (human PBMCs; Example 59, 0.8 ug/ml, donor 177) was 102 pg/mL. The IFN-α (human PBMCs; Example 59, 0.8 ug/ml, donor 272) was 185 pg/mL, the IFN-α (human PBMCs; Example 59, 0.8 ug/ml, donor 273) was 102 pg/mL and the IFN-α mean (human PBMCs; Example 59, 0.8 ug/ml, mean of four donors) was 123 pg/mL. The IFN-α (human PBMCs; Example 59, 4 ug/ml, donor 48) was 818 pg/mL, the IFN-α (human PBMCs; Example 59, 4 ug/ml, donor 177) was 3631 pg/mL and the IFN-α (human PBMCs; Example 59, 4 ug/ml, donor 272) was 604 pg/mL. The IFN-α (human PBMCs; Example 59, 4 ug/ml, donor 273) was 102 pg/mL, the IFN-α mean (human PBMCs; Example 59, 4 ug/ml, mean of four donors) was 1289 pg/mL and the IFN-α (human PBMCs; Example 59, 20 ug/ml, donor 48) was 2212 pg/mL. It also gave an IFN-α (human PBMCs; Example 59, 20 ug/ml, donor 177) of 4277 pg/mL, an IFN-α (human PBMCs; Example 59, 20 ug/ml, donor 272) of 642 pg/mL and an IFN-α (human PBMCs; Example 59, 20 ug/ml, donor 273) of 102 pg/mL. For the same substance, the IFN-α mean (human PBMCs; Example 59, 20 ug/ml, mean of four donors) was 1808 pg/mL, the “IFN-α induction (FIG. 10), in words” value (human PBMCs; 24 h) was “induce high levels of IFN-α” and the IFN-α (human PBMCs; Table 24, donor 28234) was 16 pg/mL. It also gave an IFN-γ (human PBMCs; Table 24, donor 28234) of 14 pg/mL, an IFN-α (human PBMCs; Table 24, donor 28235) of 249 pg/mL and an IFN-γ (human PBMCs; Table 24, donor 28235) of 205 pg/mL. It also gave an IFN-α (human PBMCs; Table 24, donor 28236) of 1354 pg/mL, an IFN-γ (human PBMCs; Table 24, donor 28236) of 627 pg/mL and an IFN-α (human PBMCs; Table 24, donor 28237) of 8566 pg/mL. It also gave an IFN-γ (human PBMCs; Table 24, donor 28237) of 2612 pg/mL, an IFN-α mean (human PBMCs; [7]) of 2546 pg/mL and an IFN-γ mean (human PBMCs; [7]) of 865 pg/mL. The IFN-a (human PBMCs; Table 25, donor 28250) was 540 pg/mL, the IFN-g (human PBMCs; Table 25, donor 28250, polynucleotides/spacers at amounts equivalent to the CIC, spacers alone 9 uM) was 224 pg/mL and the IFN-a (human PBMCs; Table 25, donor 28251) was 1472 pg/mL. For the same substance, the IFN-g (human PBMCs; Table 25, donor 28251) was 63 pg/mL, the IFN-a (human PBMCs; Table 25, donor 28252) was 509 pg/mL and the IFN-g (human PBMCs; Table 25, donor 28252) was 180 pg/mL. It also gave an IFN-a (human PBMCs; Table 25, donor 28253) of 2645 pg/mL, an IFN-g (human PBMCs; Table 25, donor 28253) of 146 pg/mL and an IFN-a mean (human PBMCs; [8]) of 1291 pg/mL. For the same substance, the IFN-g mean (human PBMCs; [8]) was 153 pg/mL.

For “(5′-TCGTTCG-3′-HEG)2-glycerol-HEG-5′-TCGTTCG-3′ [Compound C-158]”, the “B cell proliferation (FIG. 11), in words” value (CD19+ B cells) was “induce B cells to proliferate” and the “IFN-α induction (FIG. 10), in words” value (human PBMCs; 24 h) was “induce high levels of IFN-α”.

Reference: patent publication US9028845B2, “Chimeric immunomodulatory compounds and methods of using the same-IV” (Dynavax Technologies Corporation, priority 2001, dated 2015)
